Results reported in patent US6919349B2, “Spiro compounds and adhesion molecule inhibitors containing the same as the active ingredient” (Toray Industries, Inc., priority 2000, dated 2005).

The molecules below were run against VLA-4-IgG chimera protein (Homo sapiens, UniProt P05556+P13612) (assay: Inhibitory effect against binding between CS-1 peptide and VLA-4-IgG chimera protein). Settings: binding of VLA-4-IgG chimera protein to immobilized CS-1 peptide conjugate; compound pre-reacted with chimera protein 20 min; 30° C. 3 hours; absorbance 490 nm.
Protocol: The inhibitory activity of the compound according to the present invention against the adhesion of VLA-4 may be determined by using an adhesion-measuring system in which the adhesion between VLA-4-expressing cells such as Ramos cells or Jurkat cells and fibronectin or fibronectin fragment such as a peptide containing CS-1 sequence (Gly Pro Glu Ile Leu Asp Val Pro Ser Thr) (hereinafter referred to as “CS-1 peptide”), immobilized on an immunoplate is measured. Alternatively, a binding-measuring system in which the adhesion between VLA-4 protein and fibronectin or fibronectin fragment such as CS-1 peptide, immobilized on an immunoplate may be used. In the present invention, it is preferred to evaluate the inhibitory activity of a compound using a binding-measuring system in which adhesion between a chimera protein of VLA-4-immunoglobulin (VLA-4-IgG chimera protein) and CS-1 peptide (Japanese Patent Application No. H9-234544), but the method is not restricted thereto. The “VLA-4-IgG chimera protein” herein means the heterodimer complex of the chimera protein between α4 of VLA-4 and immunoglobulin (hereinafter referred to as “VLAα4-IgG chimera protein”) and a chimera protein between β1 of VLA-4 and immunoglobulin (hereinafter referred to as “VLAβ1-IgG chimera protein”). As the immunoglobulin, although heavy chain or light chain of IgG, IgM or the like may be used, IgG1 heavy chain is used in the present invention. When testing the inhibitory effect of a compound, it is preferred to mix VLA-4-IgG chimera protein and the test compound previously.
In accordance with the teaching of a report (Humphrise, M. J. et al. J.Bio.Chem.,262,6886-6892(1987)), a conjugate between a peptide (Gys Leu His Gly Pro Glu Glu Ile Leu Asp Val Pro Ser Thr) containing CS-1 sequence and rabbit IgG (Sigma) was prepared. This was diluted with phosphate buffer (hereinafter referred to as “PBS(−)” for short), and the obtained solution was placed in the wells of a 96-well immunoplate (NUNC) in an amount of 100 μl/well, followed by leaving to stand the immunoplate at 4° C. for 16 hours to immobilize the conjugate.
The wells were then washed twice with PBS(−), and 1% BSA solution in PBS, which BSA was heated at 80° C. for 10 minutes, was placed in each well in an amount of 300 μl/well. The immunoplate was left to stand at 4° C. for 3 hours, and then the solution in each well was removed by suction.
Each compound and VLA-4-IgG chimera protein (100 μl) were preliminarily reacted at room temperature for 20 minutes, and then the resulting mixture was allowed to react with the CS-1peptide in each well at 30° C. for 3 hours. Thereafter, non-bound VLA-4-IgG chimera protein was removed by suction, and each well was washed twice with 0.1% BSA-containing TBS buffer (150 mM NaCl, 25 mM Tris-HCl, 1 mM MnCl2, PH7.4). To the bound VLA-4-IgG chimera protein, biotin-labelled anti-human IgG antibody (Vector) as a primary antibody was added, and then avidin-labelled horse radish peroxidase (Sigma) as a secondary antibody was added, thereby allowing the reactions. Then o-phenylenediamine as a substrate was added to color the reaction solution, and the absorbance at 490 nm was measured. From this absorbance, the binding inhibitory activity of each compound was determined.

VLA-4-IgG chimera protein, sequence (P13612 with tags, fused parts or gaps limits assumed): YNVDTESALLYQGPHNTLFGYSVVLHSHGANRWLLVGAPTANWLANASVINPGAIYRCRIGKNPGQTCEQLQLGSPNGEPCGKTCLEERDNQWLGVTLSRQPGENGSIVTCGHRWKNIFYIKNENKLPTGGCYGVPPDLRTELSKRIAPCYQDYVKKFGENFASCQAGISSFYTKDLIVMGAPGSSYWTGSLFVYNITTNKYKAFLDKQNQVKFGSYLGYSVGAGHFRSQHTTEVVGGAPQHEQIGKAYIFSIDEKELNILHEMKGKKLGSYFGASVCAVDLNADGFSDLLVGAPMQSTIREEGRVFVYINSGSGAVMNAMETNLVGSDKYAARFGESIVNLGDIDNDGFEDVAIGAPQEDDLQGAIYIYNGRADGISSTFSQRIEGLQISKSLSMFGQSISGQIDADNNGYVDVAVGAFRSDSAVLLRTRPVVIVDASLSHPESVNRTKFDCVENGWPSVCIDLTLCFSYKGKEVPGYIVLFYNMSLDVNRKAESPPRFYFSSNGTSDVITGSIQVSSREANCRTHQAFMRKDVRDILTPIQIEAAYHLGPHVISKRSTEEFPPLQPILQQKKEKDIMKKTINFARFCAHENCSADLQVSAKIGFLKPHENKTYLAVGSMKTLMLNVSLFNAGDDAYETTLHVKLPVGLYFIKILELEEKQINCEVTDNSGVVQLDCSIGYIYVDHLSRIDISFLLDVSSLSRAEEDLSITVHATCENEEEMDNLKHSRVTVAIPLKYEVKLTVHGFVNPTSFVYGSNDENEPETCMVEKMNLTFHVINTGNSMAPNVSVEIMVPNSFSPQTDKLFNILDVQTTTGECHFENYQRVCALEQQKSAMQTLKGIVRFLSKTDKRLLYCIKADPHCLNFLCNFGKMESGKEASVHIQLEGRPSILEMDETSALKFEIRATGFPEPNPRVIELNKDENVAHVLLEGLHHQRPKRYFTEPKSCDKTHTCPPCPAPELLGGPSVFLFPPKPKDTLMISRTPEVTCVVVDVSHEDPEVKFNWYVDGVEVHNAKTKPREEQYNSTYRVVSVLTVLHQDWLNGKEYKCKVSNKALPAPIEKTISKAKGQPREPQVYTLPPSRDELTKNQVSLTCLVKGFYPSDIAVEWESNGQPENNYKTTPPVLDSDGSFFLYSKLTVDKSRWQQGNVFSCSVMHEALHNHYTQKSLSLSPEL
VLA-4-IgG chimera protein, sequence (P05556 with tags, fused parts or gaps limits assumed): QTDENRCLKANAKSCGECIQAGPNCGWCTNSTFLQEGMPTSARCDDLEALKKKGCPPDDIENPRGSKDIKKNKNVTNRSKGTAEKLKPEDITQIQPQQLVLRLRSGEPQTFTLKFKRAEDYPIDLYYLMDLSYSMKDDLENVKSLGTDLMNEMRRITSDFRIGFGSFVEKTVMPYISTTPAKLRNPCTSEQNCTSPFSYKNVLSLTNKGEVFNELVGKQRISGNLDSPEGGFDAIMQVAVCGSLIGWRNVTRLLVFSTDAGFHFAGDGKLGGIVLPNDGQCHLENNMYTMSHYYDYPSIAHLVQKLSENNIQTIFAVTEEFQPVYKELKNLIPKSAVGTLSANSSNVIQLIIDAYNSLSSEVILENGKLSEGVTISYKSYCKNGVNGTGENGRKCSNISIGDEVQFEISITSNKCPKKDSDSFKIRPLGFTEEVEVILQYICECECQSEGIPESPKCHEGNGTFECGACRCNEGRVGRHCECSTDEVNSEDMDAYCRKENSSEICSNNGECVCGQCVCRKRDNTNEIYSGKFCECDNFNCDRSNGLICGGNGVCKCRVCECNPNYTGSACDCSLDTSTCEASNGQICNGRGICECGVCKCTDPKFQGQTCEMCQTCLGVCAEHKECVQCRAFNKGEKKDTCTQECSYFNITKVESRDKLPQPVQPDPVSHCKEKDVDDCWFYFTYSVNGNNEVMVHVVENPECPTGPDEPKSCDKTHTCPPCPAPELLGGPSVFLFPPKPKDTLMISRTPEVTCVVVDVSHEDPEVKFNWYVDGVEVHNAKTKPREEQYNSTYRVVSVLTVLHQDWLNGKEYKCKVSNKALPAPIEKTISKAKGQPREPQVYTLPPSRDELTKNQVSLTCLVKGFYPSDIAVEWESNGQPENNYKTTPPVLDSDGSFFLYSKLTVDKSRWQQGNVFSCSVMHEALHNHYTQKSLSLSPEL

Structure (SMILES)	IC50
Cc1cccc(C)c1C(=O)N[C@@H](CNC(=O)N1CCC2(CC1)C(=O)N(Cc1ccccc1)CN2c1ccccc1)C(=O)O [Compound 13, 2-((2,6-dimethylphenyl)carbonylamino)-3-((2,4,8-triaza-1-oxo-4-phenyl-2-benzylspiro[4.5]dec-8-yl)carbonylamino)propanoic acid]	2.9 nM
COc1cccc(OC)c1C(=O)N[C@@H](CNC(=O)N1CCC2(CC1)C(=O)N(Cc1ccccc1)CN2c1ccccc1)C(=O)O [Compound 7, 2-((2,6-dimethoxyphenyl)carbonylamino)-3-((2,4,8-triaza-1-oxo-4-phenyl-2-benzylspiro[4.5]dec-8-yl)carbonylamino)propanoic acid]	18 nM
O=C(N[C@@H](CNC(=O)N1CCC2(CC1)C(=O)NCN2c1ccccc1)C(=O)O)c1c(Cl)cccc1Cl [Compound 3, 3-((2,4,8-triaza-1-oxo-4-phenylspiro[4.5]dec-8-yl)carbonylamino)-2-((2,6-dichlorophenyl)carbonylamino)propanoic acid]	6.1 nM

Further lines, results first:

IC50	Structure (SMILES)
2.1 nM	CC(C)C(=O)NC1(c2ccccc2)CCN(C(=O)N[C@@H](CNC(=O)N2CCC3(CC2)C(=O)N(Cc2ccccc2)CN3c2ccccc2)C(=O)O)CC1 [Compound 27]
0.98 nM	O=C(O)[C@H](CNC(=O)N1CCC2(CC1)C(=O)N(Cc1ccccc1)CN2c1ccccc1)NC(=O)N1CCC(n2c(=O)[nH]c3ccccc32)CC1 [Compound 31, 2-((4-(2-oxo(3-hydrobenzimidazolyl))piperidyl)carbonylamino)-3-((2,4,8-triaza-1-oxo-4-phenyl-2-benzylspiro[4.5]dec-8-yl)carbonylamino)propanoic acid]
